Measurements: patent US8337828B2, “Use of thymosin alpha 1, alone or in combination with PTX3 or ganciclovir, for the treatment of cytomegalovirus infection” (priority 2006, dated 2012)
Ends that are not written are not given here.

How the values were obtained:
CD11b+DC or pDC = assay: Cytokine production by MCMV-pulsed DC subsets (ELISA); type: cell-based, BALB/c mice; details: MCMV-infected
Source text: Arrow indicates an inducible band. Lane 1, uninfected cells; lane 2, MCMV-infected; lane 3, Thymosin alpha 1 treated; lane 4, MCMV+Thymosin alpha 1 treated. (FIG. 3b) Cytokine production (pg/ml) by DC subsets treated as above. Bars indicate the standard errors. *P<0.05, cytokine production in MCMV-infected DC vs uninfected DC. **P<0.05, Thymosin alpha 1-treated vs untreated DC. (FIG. 3c) Cytokine production in mice during MCMV infection. Cytokine levels (pg/ml) in culture supernatants of spleen cells from mice with MCMV infection and treated for a week with Thymosin alpha 1 or GCV. *P<0.05, treated vs untreated mice. ND, not done.
DC subset generation. DC were obtained by culturing 10^6/ml BALB/c bone marrow cells in Iscove's modified medium, containing 10% filtered bovine serum, 50 μM 2-mercaptoethanol, sodium pyruvate (1 mM), 2 mM L-glutamine, HEPES (10 mM), and 50 μg/ml gentamycin in the presence of 150 U/ml mouse rGM-CSF (Sigma) and 75 U/ml rIL-4 (R&D Systems) for 7 days to obtain CD11b+DC or 200 ng/ml FLT3-L (Immunex Corporation, Seattle, Wash.) for 9 days to obtain pDC. Final maturation was accomplished by the addition of 1 μg/ml LPS or 2 μg/ml cytosine phosphorothioate-guanine oligodeoxynucleotide (CpG-B ODN 1668) (Coley Pharmaceutical Group, Wellesley, Mass.) for additional 24 h to CD11b+DC or pDC, respectively (Blood 2003; 102: 3807-344; 3814) CD11b+DC were discriminated on CD11chigh expression and were distinctly composed of CD8a+DC and CD11b+DC. pDC were defined as CD11clow, Ly6C+, CD8a+/− cells. Photographs were taken using a high Resolution Microscopy Color Camera AxioCam, using the AxioVision Software Rel. […]
Quantification of cytokines by ELISA and ELISPOT assays. The levels of cytokines in the culture supernatants of mitogen-stimulated spleen cells (48 h stimulation with 10 μg/ml ConA) or MCMV-pulsed DC (24 h) were determined by ELISA (R&D Systems and PBL, Biomedical Lab, Milan, Italy). […] Results are expressed as the mean number of cytokine-producing cells (±SE) per 10^5 cells, calculated using replicates of serial 2-fold dilutions of cells.

MCMV = assay: Viral replication in DC subsets (real-time PCR of MCMV gB transcripts); type: cell-based, BALB/c mice; details: 50 μg/ml for 2 h before infection, 48 h
Method: (FIG. 3a) CD11b+DC or pDC were generated from bone marrow of BALB/c mice, infected with MCMV and assessed for morphology by light microscopy and viral replication by real-time PCR of MCMV gB transcripts expression (both at 48 h) or for IRF7 nuclear expression by immunobloting with anti-IRF7 (2 h later). Cells were exposed (+) or not (−) to 50 μg/ml Thymosin alpha 1 for 2 h at 37° C. before infection. − represents uninfected cells. The results shown represent one representative experiment out of 3.
DC subset generation. DC were obtained by culturing 10^6/ml BALB/c bone marrow cells in Iscove's modified medium, containing 10% filtered bovine serum, 50 μM 2-mercaptoethanol, sodium pyruvate (1 mM), 2 mM L-glutamine, HEPES (10 mM), and 50 μg/ml gentamycin in the presence of 150 U/ml mouse rGM-CSF (Sigma) and 75 U/ml rIL-4 (R&D Systems) for 7 days to obtain CD11b+DC or 200 ng/ml FLT3-L (Immunex Corporation, Seattle, Wash.) for 9 days to obtain pDC. […]
Inhibition of viral replication. […] Infectivity was measured 48 h later.
Real time RT-PCR for quantification of MCMV mRNA. […]

[1] = test system: methylcholanthrene-induced fibrosarcoma; details: mouse, in vivo; cited from earlier work

Substance: Ac-Ser-Asp-Ala-Ala-Val-Asp-Thr-Ser-Ser-Glu -Ile-Thr-Thr-Lys-Asp-Leu-Lys-Glu-Lys-Lys-Glu-Val-Glu-Glu-Ala-Glu-Asn-O (Ac-SDAAVDTSSEITTKDLKEKKEVEEAEN) [Thymosin alpha 1, acidic peptide present in thymus extract with immunoregulatory properties]
- production of IFN-a (CD11b+DC or pDC; CD11b+DC): slightly promoted
- production of IFN-a (CD11b+DC or pDC; pDC pre-treated): greatly increased
- production of IL-12p70 (CD11b+DC or pDC; pDC pre-treated): not affecting
- viral replication (MCMV; CD11b+DC): not affected
- viral replication (MCMV; pDC): actually promoted
- pulmonary metastases [1]: reduced
